Assay results reported in patent publication US20240309007A1, “CRYSTALLINE FORMS OF 3-{4-[(2R)-2-AMINOPROPOXY]PHENYL}-N-[(1R)- 1-(3-FLUOROPHENYL) ETHYL]IMIDAZO[1,2-B]PYRIDAZIN-6-AMINE AND SALTS THEREOF” (ANHEART THERAPEUTICS (HANGZHOU) CO., LTD., priority 2021, published 2024).
In brackets after ≈: the same amount, converted by molar mass.

Assay: Solubility of the crystalline form in buffers, SGF, FaSSIF, FeSSIF and water at 37° C. (HPLC; XRPD of undissolved solid)
Type: physicochemical
Conditions: for solubility at 2 h / solubility at 24 h: 37 °C, thermodynamic from solid
Source text: (1) a KCl/HCl buffer solution with a pH of 1.0, (2) a potassium hydrogen phthalate buffer solution with a pH of 3.0, (3) a sodium acetate trihydrate buffer solution with a pH of 4.5, (4) a potassium dihydrogen phosphate buffer solution with a pH of 6.0, (5) a potassium dihydrogen phosphate buffer solution with a pH of 7.5, (6) SGF (simulated gastric fluid), (7) FaSSIF (fasted state simulated intestinal fluids, pH=6.5), (8) FeSSIF (fed state simulated intestinal fluids, pH=5.0), and (9) water. Each mixture was then stirred in a water bath at 37° C. After equilibrated for 2 hours and 24 hours, concentrations (mg/mL) of the crystal in the mixture were measured by HPLC and the undissolved solid was evaluated by XRPD.

[1] = FaSSIF (fasted state simulated intestinal fluid), pH 6.5, fassif
[2] = FeSSIF (fed state simulated intestinal fluid), pH 5, fessif
[3] = KCl/HCl buffer, pH 1, simulated gastric fluid
[4] = SGF (simulated gastric fluid), 37° C.
[5] = SGF (simulated gastric fluid), simulated gastric fluid
[6] = potassium dihydrogen phosphate buffer pH 6.0, 37° C.
[7] = potassium dihydrogen phosphate buffer pH 7.5, 37° C.
[8] = potassium dihydrogen phosphate buffer, pH 6, aqueous buffer
[9] = potassium dihydrogen phosphate buffer, pH 7.5, aqueous buffer
[10] = potassium hydrogen phthalate buffer pH 3.0, 37° C.
[11] = potassium hydrogen phthalate buffer, pH 3, aqueous buffer
[12] = sodium acetate trihydrate buffer pH 4.5, 37° C.
[13] = sodium acetate trihydrate buffer, pH 4.5, aqueous buffer

solubility at 2 h [1]: 331 µg/mL (≈ 0.816 mM)
solubility at 24 h [1]: 225 µg/mL (≈ 0.555 mM)
XRPD of undissolved solid (FaSSIF (pH=6.5), 37° C.): changed
pH after 24 hours (FaSSIF (pH=6.5), 37° C.): 5.008
solubility at 2 h [2]: 493 µg/mL (≈ 1.22 mM)
solubility at 24 h [2]: 143 µg/mL (≈ 0.353 mM)
XRPD of undissolved solid (FeSSIF (pH=5.0), 37° C.): Form A
pH after 24 hours (FeSSIF (pH=5.0), 37° C.): 4.205
XRPD of undissolved solid (KCl/HCl buffer pH 1.0, 37° C.): changed
pH after 24 hours (KCl/HCl buffer pH 1.0, 37° C.): 3.746
solubility at 2 h [3]: 20400 µg/mL (≈ 50.4 mM)
solubility at 24 h [3]: 17800 µg/mL (≈ 43.9 mM)
XRPD of undissolved solid [4]: changed
pH after 24 hours [4]: 5.281
solubility at 2 h [5]: 15600 µg/mL (≈ 38.5 mM)
solubility at 24 h [5]: 16000 µg/mL (≈ 39.4 mM)
solubility (in words) (pH 1): superior solubility
XRPD of undissolved solid [6]: Form A
pH after 24 hours [6]: 5.055
XRPD of undissolved solid [7]: changed
pH after 24 hours [7]: 5.570
solubility at 2 h [8]: 2340 µg/mL (≈ 5.76 mM)
solubility at 24 h [8]: 1700 µg/mL (≈ 4.2 mM)
solubility at 2 h [9]: 597 µg/mL (≈ 1.47 mM)
solubility at 24 h [9]: 419 µg/mL (≈ 1.03 mM)
XRPD of undissolved solid [10]: changed
pH after 24 hours [10]: 4.418
solubility at 2 h [11]: 1350 µg/mL (≈ 3.32 mM)
solubility at 24 h [11]: 852 µg/mL (≈ 2.1 mM)
XRPD of undissolved solid [12]: Form A
pH after 24 hours [12]: 4.541
solubility at 2 h [13]: 2840 µg/mL (≈ 7 mM)
solubility at 24 h [13]: 2880 µg/mL (≈ 7.12 mM)
XRPD of undissolved solid (water, 37° C.): Form A
pH after 24 hours (water, 37° C.): 5.115
solubility at 2 h (water): 1610 µg/mL (≈ 3.96 mM)
solubility at 24 h (water): 1410 µg/mL (≈ 3.48 mM)
SMILES: C[C@@H](N)COc1ccc(-c2cnc3ccc(N[C@H](C)c4cccc(F)c4)nn23)cc1 [crystalline form A of Compound 1 adipate, 3-{4-[(2R)-2-aminopropoxy]phenyl}-N-[(1R)-1-(3-fluorophenyl)ethyl]imidazo[1,2-b]pyridazin-6-amine]
